Test results published in patent publication US10167283B2, “β-lactamase inhibitors and uses thereof” (priority 2015, dated 2019).
Where a name gives a salt, the structure may show the parent alone. Read-outs that look alike come from different tables or passages of the source.

Columns and labels:
[1] = Pharmacokinetics in SD rats (iv); type: in vivo, SD rat; conditions: male, plasma; for half-life / clearance: SD, rat, iv, 1 mg/kg; for clearance: read-out: Cl—obs (converted); for Vd / AUC(0-t): SD rat, iv 1 mg/kg; for Vd: apparent volume of distribution, read-out: Vss—obs; for AUC(0-t): area under the curve 0→t
Experimental: Experimental Example 1: Pharmacokinetics Experiments of the Compound of the Present Invention in Rats Test animals: 3 male SD rats, bodyweight 200-250 g for each animal. Test samples were administrated via intravenous push (iv), dosage of administration was 1 mg/kg, volume of administration was 2 mL/kg. Collecting time points: iv: after administration 0.083 […]. At each time point, about 100 μL of whole blood was sampled via caudal vein, added to K2EDTA anti-coagulative tube, centrifuged in a refrigerated centrifuge under 8000 rpm for 6 min to separate plasma, and the plasma was stored in -80° C. refrigerator. Plasma (20 μL) was taken and placed in a 96-well deep-well plate, and internal standard solution (300 μL) was added, subjected to vortex for 5 min, then centrifuged under 12000 rpm for 5 min, and then supernatant (200 μL) was taken and subjected to vortex for 3 min; to be analyzed by LC-MS/MS. Plasma (30 μL) was taken and placed in 1.5 mL EP tube, and internal standard solution (300 μL) was added, subjected to vortex for 5 min, then centrifuged under 12000 rpm for 5 min, and then supernatant (200 μL) was taken and subjected to vortex for 3 min; to be analyzed by LC-MS/MS. Plasma (30 μL) was taken and placed in a 96-well deep-well plate, and internal standard solution (200 μL) was added, subjected to vortex for 5 min, then centrifuged under 4000 rpm for 20 min, and then supernatant (100 μL) was taken and water (100 μL) was added, and subjected to vortex homogeneously; to be analyzed by LC-MS/MS.

OXA-10 = target: T1, OXA-10 (Pseudomonas aeruginosa, UniProt P14489); test: β-lactamase inhibition, Nitrocefin hydrolysis; type: biochemical; conditions: Experiment 3; enzyme 10 nM, Nitrocefin 0.1 mM; read-out: IC50 Type D OXA-10
T1 construct: purchased
T1 sequence (P14489 20-266, species assumed): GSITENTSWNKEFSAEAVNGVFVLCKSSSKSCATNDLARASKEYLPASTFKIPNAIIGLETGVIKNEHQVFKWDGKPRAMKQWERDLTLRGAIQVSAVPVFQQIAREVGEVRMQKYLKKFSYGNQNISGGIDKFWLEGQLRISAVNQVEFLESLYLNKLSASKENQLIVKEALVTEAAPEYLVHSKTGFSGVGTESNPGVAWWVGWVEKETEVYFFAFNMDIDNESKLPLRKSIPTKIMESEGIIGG
Experimental: (§1) Nitrocefin, a kind of cephalosporin antibiotics, is sensitive to most of β-lactamases, and changes in color after being hydrolyzed. The hydrolysis rate of Nitrocefin was measured by real-time recording corresponding absorbance of reaction system. β-Lactamase inhibitors could inhibit hydrolysis of the enzymes to Nitrocefin, and reduce hydrolysis rate. By measuring reaction rates in the same reaction system under different inhibitor concentrations, the IC50 (half maximal inhibitory concentration) values of inhibitors were calculated.
(§2) Nitrocefin was dissolved in DMSO to form a solution with concentration of 2 mM, which was sub-packaged and stored at −20° C. The concentration of purchased β-lactamases mother liquor was 1 mg/mL, and the mother liquor was dissolved in 50% glycerol. A part of mother liquor was taken and diluted by 1000 times in reaction solution, sub-packaged and stored at ˜20° C.
(§3) The compounds to be tested were dissolved in DMSO to form a mother liquor with concentration of 10 mM. If not used that day, the mother liquor was stored at −20° C. Its test final concentrations were: 100 μM, 25 μM, 6.25 μM, 1.563 μM, 390.6 nM, 97.66 nM, 24.41 nM, 6.10 nM, 1.53 nM, 0.381 nM, 0.095 nM.

TEM-1 = target: T2, TEM-1 (Escherichia coli, UniProt P62593); test: β-lactamase inhibition, Nitrocefin hydrolysis; type: biochemical; conditions: Nitrocefin 0.1 mM
T2 construct: purchased
T2 sequence (P62593 24-286 limits assumed): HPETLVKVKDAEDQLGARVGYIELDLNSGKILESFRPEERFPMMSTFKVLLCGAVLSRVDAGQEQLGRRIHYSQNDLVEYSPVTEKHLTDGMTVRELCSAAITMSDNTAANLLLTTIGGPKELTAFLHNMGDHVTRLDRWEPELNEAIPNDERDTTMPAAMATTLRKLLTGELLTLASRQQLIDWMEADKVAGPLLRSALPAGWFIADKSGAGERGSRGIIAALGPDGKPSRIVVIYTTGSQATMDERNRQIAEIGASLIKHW
Experimental: as §1, §2, §3

KPC-2 = target: T3, KPC-2 (Klebsiella pneumoniae, UniProt Q9F663); test: β-lactamase inhibition, Nitrocefin hydrolysis; type: biochemical
T3 construct: purchased
T3 sequence (Q9F663 25-293, looked up, species assumed): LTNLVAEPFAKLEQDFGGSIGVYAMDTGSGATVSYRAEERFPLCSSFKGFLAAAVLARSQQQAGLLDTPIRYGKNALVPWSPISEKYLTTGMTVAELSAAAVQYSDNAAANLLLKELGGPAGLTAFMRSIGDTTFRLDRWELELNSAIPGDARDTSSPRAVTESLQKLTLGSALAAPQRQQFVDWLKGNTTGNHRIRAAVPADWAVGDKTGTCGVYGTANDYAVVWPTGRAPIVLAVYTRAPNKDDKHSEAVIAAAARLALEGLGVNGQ
Experimental: as §1, §2, §3

CTX-M-1 = target: T4, CTX-M-1 (Escherichia coli, UniProt P28585); test: β-lactamase inhibition, Nitrocefin hydrolysis; type: biochemical; conditions: Experiment 2; enzyme 0.2 nM, Nitrocefin 0.1 mM
T4 construct: purchased
T4 sequence (P28585 29-291): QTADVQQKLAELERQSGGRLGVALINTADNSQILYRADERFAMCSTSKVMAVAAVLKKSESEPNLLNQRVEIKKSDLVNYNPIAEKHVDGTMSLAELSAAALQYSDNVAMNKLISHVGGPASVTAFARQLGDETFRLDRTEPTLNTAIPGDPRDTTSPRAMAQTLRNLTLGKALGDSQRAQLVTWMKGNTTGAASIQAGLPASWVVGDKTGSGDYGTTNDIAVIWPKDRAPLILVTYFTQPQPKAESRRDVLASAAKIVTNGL
Experimental: as §1, §2, §3

AmpC = target: T5, AmpC (UniProt P05364); test: β-lactamase inhibition, Nitrocefin hydrolysis; type: biochemical; conditions: Nitrocefin 0.1 mM
T5 construct: The concentration of purchased β-lactamases mother liquor was 1 mg/mL, and the mother liquor was dissolved in 50% glycerol
Experimental: as §1, §2, §3

[2] = test system: Enterobacter cloacae 7494ecl-295 (NDM, ESBLs, AmpC); test: In vitro antibacterial activity on clinically separated CRE strain, agar dilution MIC; type: cell-based; conditions: Table 3, 7494ecl-295 Enterobacter cloacae
Description: (§4) Experimental strains: all experimental standard bacterial strains for enzyme production were purchased from ATCC, and the clinically separated CRE strain was purchased from Southwest Hospital of the Third Military Medical University.
(§5) Experimental Method: Agar dilution method, referring to M100-S23: Performance Standards for Antimicrobial Susceptibility Testing: Twenty-Third Informational Supplement (Clinical And Laboratory Standards Institute, 2013). Minimal inhibitory concentration (MIC, μg/mL) was calculated.

[3] = test system: Enterobacter cloacae 7513ecl-314 (AmpC); test: as above; type: cell-based; conditions: Table 3, 7513ecl-314 Enterobacter cloacae
Description: as §4, §5

[4] = test system: Klebsiella pneumoniae 7463kpn-610 (ESBLs); test: as above; type: cell-based; conditions: Table 3, 7463kpn-610 Klebsiella pneumoniae
Description: as §4, §5

[5] = test system: Citrobacter freundii 7520cfr-167 (NDM, OXA-10, ESBLs); test: as above; type: cell-based; conditions: Table 3, 7520cfr-167 Citrobacter freundii
Description: as §4, §5

[6] = test system: Enterobacter cloacae 7495ecl-296 (IMP, ESBLs, AmpC); test: as above; type: cell-based; conditions: Table 3, 7495ecl-296 Enterobacter cloacae
Description: as §4, §5

[7] = test system: Escherichia coli 7438eco-639 (NDM, ESBLs); test: as above; type: cell-based; conditions: Table 3, 7438eco-639 Escherichia coli
Description: as §4, §5

[8] = test system: Klebsiella pneumoniae 7484kpn-631 (IMP, ESBLs); test: as above; type: cell-based; conditions: Table 3, 7484kpn-631 Klebsiella pneumoniae
Description: as §4, §5

[9] = test system: Klebsiella pneumoniae 7450kpn-597 (KPC, ESBLs); test: as above; type: cell-based; conditions: Table 3, 7450kpn-597 Klebsiella pneumoniae
Description: as §4, §5

[10] = test system: Enterobacter cloacae 7498ecl-299 (ESBLs, AmpC); test: as above; type: cell-based; conditions: Table 3, 7498ecl-299 Enterobacter cloacae
Description: as §4, §5

[11] = test system: Citrobacter freundii 7521cfr-169 (NDM, ESBLs, AmpC); test: as above; type: cell-based; conditions: Table 3, 7521cfr-169 Citrobacter freundii
Description: as §4, §5

[12] = test system: Escherichia coli BAA-2523 (OXA-48); test: In vitro antibacterial activity, agar dilution MIC; type: cell-based; conditions: BAA2523, Table 2, BAA-2523 Escherichia coli, OXA-48, read-out: MIC
Description: as §4, §5

[13] = test system: Enterobacter cloacae BAA-2341 (KPC); test: In vitro antibacterial activity, agar dilution MIC; type: cell-based; conditions: BAA2341; Table 2; BAA-2341 Enterobacter cloacae, KPC; read-out: MIC
Description: as §4, §5

[14] = test system: Klebsiella oxytoca ATCC-51983 (SHV-5); test: In vitro antibacterial activity, agar dilution MIC; type: cell-based; conditions: ATCC51983; Table 2; ATCC-51983 Klebsiella oxytoca, SHV-5; read-out: MIC
Description: as §4, §5

[15] = test system: Klebsiella pneumoniae BAA-2524 (OXA-48); test: In vitro antibacterial activity, agar dilution MIC; type: cell-based; conditions: BAA2524; Table 2; BAA-2524 Klebsiella pneumoniae, OXA-48; read-out: MIC
Description: as §4, §5

[16] = test system: Klebsiella pneumoniae BAA-1900 (KPC); test: In vitro antibacterial activity, agar dilution MIC; type: cell-based; conditions: BAA1900, Table 2, BAA-1900 Klebsiella pneumoniae, KPC, read-out: MIC
Description: as §4, §5

[17] = test system: Escherichia coli BAA-2452 (NDM-1); test: In vitro antibacterial activity, agar dilution MIC; type: cell-based; conditions: BAA2452, Table 2, BAA-2452 Escherichia coli, NDM-1, read-out: MIC
Description: as §4, §5

[18] = test system: Klebsiella pneumoniae BAA-2146 (NDM-1); test: In vitro antibacterial activity, agar dilution MIC; type: cell-based; conditions: BAA2146, Table 2, BAA-2146 Klebsiella pneumoniae, NDM-1, read-out: MIC
Description: as §4, §5

[19] = test system: Enterobacter hormaechei BAA-2082 (KPC); test: In vitro antibacterial activity, agar dilution MIC; type: cell-based; conditions: BAA2082; Table 2; BAA-2082 Enterobacter hormaechei, KPC; read-out: MIC
Description: as §4, §5

[20] = Experiment 1, enzyme 0.25 nM, read-out: IC50 ESBLs type TEM-1
[21] = Experiment 1, Nitrocefin 0.1 mM, read-out: IC50 Type A KPC-2
[22] = read-out: IC50 Type C AmpC, Experiment 1, enzyme 0.4 nM

SMILES: CN1CC2(CC(NC(=O)[C@@H]3CC[C@@H]4CN3C(=O)N4OS(=O)(=O)O)C2)C1 [Compound 6 sodium salt, sodium (2S,5R)-2-((2-methyl-2-azaspiro[3.3]heptan-6-yl)carbamoyl)-7-oxo-1,6-diazabicyclo[3.2.1]octan-6-yl sulfate]
- half-life [1]: 0.25 h
- clearance [1]: 9.08 mL/min/kg
- Vd [1]: 0.219 L/kg
- AUC(0-t) [1]: 1840 ng·h/mL
- IC50 (OXA-10): 21700 nM

SMILES: CN1CC2(CC(NC(=O)[C@@H]3CC[C@@H]4CN3C(=O)N4OS(=O)(=O)O)C2)C1 [Compound 6, sodium (2S,5R)-2-((2-methyl-2-azaspiro[3.3]heptan-6-yl)carbamoyl)-7-oxo-1,6-diazabicyclo[3.2.1]octan-6-yl hydrogen sulfate]
- IC50 (TEM-1; Experiment 2, enzyme 1 nM, read-out: IC50 TEM-1): 30.1 nM
- IC50 (KPC-2; Experiment 2, enzyme 1.28 nM, Nitrocefin 0.1 mM, read-out: IC50 KPC-2): 42.3 nM
- IC50 (CTX-M-1): 40.8 nM
- IC50 (AmpC; read-out: IC50 AmpC, Experiment 2, enzyme 1.6 nM): 17.7 nM
- MIC [2]: 2 µg/mL
- MIC [3]: 2 µg/mL
- MIC [4]: 2 µg/mL
- MIC [5]: 2 µg/mL
- MIC [6]: 2 µg/mL
- MIC [7]: 2 µg/mL
- MIC [8]: 4 µg/mL
- MIC [9]: 2 µg/mL
- MIC [10]: 2 µg/mL
- MIC [11]: 2 µg/mL
- MIC [12]: 1 µg/mL
- MIC [13]: 2 µg/mL
- MIC [14]: 4 µg/mL
- MIC [15]: 2 µg/mL
- MIC [16]: 2 µg/mL
- MIC [17]: 2 µg/mL
- MIC [18]: 4 µg/mL
- MIC [19]: 2 µg/mL

SMILES: O=C(NC1CC2(CCNCC2)C1)[C@@H]1CC[C@@H]2CN1C(=O)N2OS(=O)(=O)O [Compound 1, (2S,5R)-2-(7-azaspiro[3.5]nonan-2-ylcarbamoyl)-7-oxo-1,6-diazabicyclo[3.2.1]octan-6-yl hydrogen sulfate]
- half-life [1]: 1.01 h
- clearance [1]: 7.77 mL/min/kg
- Vd [1]: 0.294 L/kg
- AUC(0-t) [1]: 2330 ng·h/mL
- IC50 (TEM-1; [20]): 28.2 nM
- IC50 (KPC-2; [21]): 81.7 nM
- IC50 (AmpC; [22]): 22.9 nM

SMILES: O=C(NC1C2CCC1CNC2)[C@@H]1CC[C@@H]2CN1C(=O)N2OS(=O)(=O)O (stereo partly drawn) [Compound 5, (2S,5R)-2-((3-azabicyclo[3.2.1]octan-8-yl)carbamoyl)-7-oxo-1,6-diazabicyclo[3.2.1]octan-6-yl hydrogen sulfate]
- IC50 (TEM-1; [20]): 66.5 nM
- IC50 (KPC-2; [21]): 27.4 nM
- IC50 (AmpC; [22]): 84.1 nM

SMILES: O=C(NC1CC2CCC(C1)N2)[C@@H]1CC[C@@H]2CN1C(=O)N2OS(=O)(=O)O (stereo partly drawn) [Compound 4, (2S,5R)-2-((8-azabicyclo[3.2.1]octane-3-yl)carbamoyl)-7-oxo-1,6-diazabicyclo[3.2.1]octan-6-yl hydrogen sulfate]
- half-life [1]: 2.04 h
- clearance [1]: 12.1 mL/min/kg
- Vd [1]: 0.348 L/kg
- AUC(0-t) [1]: 1390 ng·h/mL
- IC50 (TEM-1; [20]): 20.5 nM
- IC50 (KPC-2): 23.1 nM
